Drawing on patent US12662491B2 (Redona Therapeutics, Inc., priority 2020, dated 2026), this text covers IC50 for 20 molecules.

This test has as its target T1, Zcchc11 enzyme (Homo sapiens, UniProt Q5TAX3).
T1 construct: made in house; host or cells: HEK293 cells (Zcchc11); E. coli Rosetta II (LIN28A)
T1 sequence (Q5TAX3 212-1420): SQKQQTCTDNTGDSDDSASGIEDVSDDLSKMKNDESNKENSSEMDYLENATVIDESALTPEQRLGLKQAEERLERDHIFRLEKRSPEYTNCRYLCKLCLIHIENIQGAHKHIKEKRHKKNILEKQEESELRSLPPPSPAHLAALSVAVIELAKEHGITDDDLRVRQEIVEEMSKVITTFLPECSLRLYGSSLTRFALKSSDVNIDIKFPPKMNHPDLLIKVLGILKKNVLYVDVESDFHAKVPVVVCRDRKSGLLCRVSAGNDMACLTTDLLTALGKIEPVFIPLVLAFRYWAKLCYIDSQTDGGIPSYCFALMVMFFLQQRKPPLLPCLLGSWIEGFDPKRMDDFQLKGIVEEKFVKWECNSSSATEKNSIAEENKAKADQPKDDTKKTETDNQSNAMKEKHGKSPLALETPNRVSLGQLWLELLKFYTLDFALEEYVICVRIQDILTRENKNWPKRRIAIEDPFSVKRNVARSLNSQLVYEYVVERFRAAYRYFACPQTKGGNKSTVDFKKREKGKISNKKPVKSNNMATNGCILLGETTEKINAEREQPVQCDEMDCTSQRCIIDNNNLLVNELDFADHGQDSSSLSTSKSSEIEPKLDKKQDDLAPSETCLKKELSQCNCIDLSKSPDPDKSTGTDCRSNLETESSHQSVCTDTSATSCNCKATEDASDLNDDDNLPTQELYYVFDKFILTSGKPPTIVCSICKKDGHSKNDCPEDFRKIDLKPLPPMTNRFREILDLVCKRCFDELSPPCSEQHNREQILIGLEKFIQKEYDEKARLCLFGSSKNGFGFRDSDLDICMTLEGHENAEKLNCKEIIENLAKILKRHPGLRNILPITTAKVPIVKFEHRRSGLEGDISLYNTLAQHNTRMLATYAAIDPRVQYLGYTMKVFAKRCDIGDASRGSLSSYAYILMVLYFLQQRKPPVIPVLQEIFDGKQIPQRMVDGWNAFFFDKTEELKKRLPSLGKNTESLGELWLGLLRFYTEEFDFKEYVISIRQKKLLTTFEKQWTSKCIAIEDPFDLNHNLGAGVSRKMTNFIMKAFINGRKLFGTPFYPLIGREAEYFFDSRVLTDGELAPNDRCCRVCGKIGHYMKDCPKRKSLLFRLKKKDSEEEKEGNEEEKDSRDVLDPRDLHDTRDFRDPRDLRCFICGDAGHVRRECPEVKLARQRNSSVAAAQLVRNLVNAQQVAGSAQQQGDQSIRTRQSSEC
The test can be described thus: TUTase assay (Zcchc11 assay, Lin28a-dependent polyuridylation of pre-let-7). It is filed as biochemical. As to conditions: Lin28a-dependent Zcchc11 (Z11) TUTase activity; read-out: Potency Lin28a-dep Z11 IC50. In a few lines:
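Potency is measured as inhibition of LIN28A-driven U-tail addition to 2 nM pre-let-7 by 0.2 nM HEK293-derived Zcchc11 fragment with 5 uM UTP at room temperature. Tail growth appears as fluorescein quenching by an annealing rhodamine-A20 probe.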
As for `O=C(O)c1cn(-c2ccc(CO)cc2)c2cc(N3CCC[C@@H]3COc3ccccn3)c(F)cc2c1=O` [Compound 162, (R)-6-fluoro-1-(4-(hydroxy-methyl)phenyl)-4-oxo-7-(2-((pyridin-2-yloxy)methyl)pyrrolidin-1-yl)-1,4-dihydro-quinoline-3-carboxylic acid], the IC50 was at most 1000 nM.

Turning to `O=C(O)c1cn(C2COC2)c2cc(N3CCC[C@@H]3COc3ccccn3)c(F)cc2c1=O` [Compound 163, (R)-6-fluoro-1-(oxetan-3-yl)-4-oxo-7-(2-((pyridin-2-yloxy)methyl)pyrrolidin-1-yl)-1,4-dihydro-quinoline-3-carboxylic acid], the IC50 was in the range of 1000 to 10000 nM.

Take `O=C(O)c1cn(-c2ccc(O)cc2C(F)(F)F)c2cc(N3CCC[C@@H]3COc3ccccn3)c(F)cc2c1=O` [Compound 164, (R)-6-fluoro-1-(4-hydroxy-2-(trifluoro-methyl)phenyl)-4-oxo-7-(2-((pyridin-2-yloxy)methyl)pyrrolidin-1-yl)-1,4-dihydro-quinoline-3-carboxylic acid]: the IC50 was in the range of 10000 to 50000 nM.

`O=C(O)c1cn(C2CC(CO)C2)c2cc(N3CCC[C@@H]3COc3ccccn3)c(F)cc2c1=O` (stereo partly drawn) [Compound 165, (R)-6-fluoro-1-(3-(hydroxy-methyl)cyclo-butyl)-4-oxo-7-(2-((pyridin-2-yloxy)methyl)pyrrolidin-1-yl)-1,4-dihydro-quinoline-3-carboxylic acid]: the IC50 lay in the range of 10000 to 50000 nM.

On to `O=C(O)c1cn(-c2ccc(O)cc2)c2cc(N3CCC[C@@H]3COc3ccccn3)c(F)cc2c1=O` [Compound 166, (R)-6-fluoro-1-(4-hydroxy-phenyl)-4-oxo-7-(2-((pyridin-2-yloxy)methyl)pyrrolidin-1-yl)-1,4-dihydro-quinoline-3-carboxylic acid], for which the IC50 is at most 1000 nM.

As to `CN(C)C1CN(c2ccc(-n3cc(C(=O)O)c(=O)c4cc(Cl)c(N5CCC[C@@H]5COc5ncncc5Cl)cc43)cn2)C1` [Compound 167, (R)-6-chloro-7-(2-(((5-chloro-pyrimidin-4-yl)oxy)methyl)pyrrolidin-1-yl)-1-(6-(3-(dimethyl-amino)azetidin-1-yl)pyridin-3-yl)-4-oxo-1,4-dihydro-quinoline-3-carboxylic acid], the IC50 was at most 1000 nM.

For the molecule `Cc1nn(C)cc1-n1cc(C(=O)O)c(=O)c2cc(Cl)c(N3CCC[C@@H]3COc3ncccc3Cl)cc21` [Compound 168, (R)-6-chloro-7-(2-(((3-chloropyridin-2-yl)oxy)methyl)pyrrolidin-1-yl)-1-(1,3-dimethyl-1H-pyrazol-4-yl)-4-oxo-1,4-dihydro-quinoline-3-carboxylic acid], the IC50 was at most 1000 nM.

As to `CN(C)C1CN(c2ccc(-n3cc(C(=O)O)c(=O)c4cc(C#N)c(N5CCC[C@@H]5COc5ncccc5F)cc43)cn2)C1` [Compound 169, (R)-6-cyano-1-(6-(3-(dimethyl-amino)azetidin-1-yl)pyridin-3-yl)-7-(2-(((3-fluoropyridin-2-yl)oxy)methyl)pyrrolidin-1-yl)-4-oxo-1,4-dihydro-quinoline-3-carboxylic acid], the IC50 was at most 1000 nM.

For the molecule `CN(C)C1CN(c2ccc(-n3cc(C(=O)O)c(=O)c4cc(Cl)c(N5CCC6CC65COc5ncccc5Cl)cc43)cn2)C1` (centres unmarked) [Compound 170, 6-chloro-7-(1-(((3-chloropyridin-2-yl)oxy)methyl)-2-azabicyclo [3.1.0]hexan-2-yl)-1-(6-(3-(dimethyl-amino)azetidin-1-yl)pyridin-3-yl)-4-oxo-1,4-dihydro-quinoline-3-carboxylic acid], the IC50 was at most 1000 nM.

Turning to `O=C(O)c1cn(-c2ccc(Cl)c(O)c2)c2cc(N3CCC[C@@H]3COc3ncccc3Cl)ccc2c1=O` [Compound 171, (R)-1-(4-chloro-3-hydroxy-phenyl)-7-(2-(((3-chloropyridin-2-yl)oxy)methyl)pyrrolidin-1-yl)-4-oxo-1,4-dihydro-quinoline-3-carboxylic acid], the IC50 was over 50000 nM.

For `CN(C)C1CN(c2ccc(-n3cc(C(=O)O)c(=O)c4cc(Cl)c(N5CCC[C@@H]5COc5nccn6ccnc56)cc43)cn2)C1` [Compound 172, (R)-6-chloro-1-(6-(3-(dimethyl-amino)azetidin-1-yl)pyridin-3-yl)-7-(2-((imidazo [1,2-a]pyrazin-8-yloxy)methyl)pyrrolidin-1-yl)-4-oxo-1,4-dihydro-quinoline-3-carboxylic acid], the half-inhibitory concentration (IC50) is at most 1000 nM.

For `CN(C)C1CN(c2ccc(-n3cc(C(=O)O)c(=O)c4cc(Cl)c(N5CCC[C@@H]5COc5nnccc5Cl)cc43)cn2)C1` [Compound 173, (R)-6-chloro-7-(2-(((4-chloro-pyridazin-3-yl)oxy)methyl)pyrrolidin-1-yl)-1-(6-(3-(dimethyl-amino)azetidin-1-yl)pyridin-3-yl)-4-oxo-1,4-dihydro-quinoline-3-carboxylic acid], the IC50 was at most 1000 nM.

On to `COc1ccc(Cl)c(OCC23CC(CN2c2cc4c(cc2Cl)c(=O)c(C(=O)O)cn4-c2ccc(N)nc2)C3)n1` [Compound 176, 1-(6-aminopyridin-3-yl)-6-chloro-7-(1-[[(3-chloro-6-methoxy-pyridin-2-yl)oxy]methyl]-2-azabicyclo [2.1.1]hexan-2-yl)-4-oxoquinoline-3-carboxylic acid], for which the IC50 lay in the range of 1000 to 10000 nM.

Turning to `COc1ccc(Cl)c(OCC23CC(CN2c2cc4c(cc2Cl)c(=O)c(C(=O)O)cn4-c2ccnc(N)c2)C3)n1` [Compound 177, 1-(2-aminopyridin-4-yl)-6-chloro-7-(1-[[(3-chloro-6-methoxy-pyridin-2-yl)oxy]methyl]-2-azabicyclo [2.1.1]hexan-2-yl)-4-oxoquinoline-3-carboxylic acid], the IC50 was 1000 to 10000 nM.

Take `CN(C)C1CN(c2ccc(-n3cc(C(=O)O)c(=O)c4cc(C#N)c(N5C6CCC5(COc5ncccc5F)CC6)cc43)cn2)C1` [Compound 181, 6-cyano-1-(6-(3-(dimethyl-amino)azetidin-1-yl)pyridin-3-yl)-7-(1-(((3-fluoropyridin-2-yl)oxy)methyl)-7-azabicyclo [2.2.1]heptan-7-yl)-4-oxo-1,4-dihydro-quinoline-3-carboxylic acid]: the IC50 is at most 1000 nM.

For `CN(C)C1CN(c2ccc(-n3cc(C(=O)O)c(=O)c4cc(Cl)c(N5CCC5COc5ncccc5Cl)cc43)cn2)C1` (centres unmarked) [Compound 184, 6-chloro-7-(2-(((3-chloropyridin-2-yl)oxy)methyl)azetidin-1-yl)-1-(6-(3-(dimethyl-amino)azetidin-1-yl)pyridin-3-yl)-4-oxo-1,4-dihydro-quinoline-3-carboxylic acid formic acid], the IC50 was at most 1000 nM.

As to `CN(C)C1CN(c2ccc(-n3cc(C(=O)O)c(=O)c4cc(Cl)c(N5CCC[C@]5(C)COc5ncccc5Cl)nc43)cn2)C1` [Compound 185], the IC50 is at most 1000 nM.

Turning to `COc1ccnc(OC[C@H]2C[C@H]3C[C@H]3N2c2cc3c(cc2Cl)c(=O)c(C(=O)O)cn3-c2ccc(N(C)C)nc2)c1F` [Compound 196, 6-chloro-1-(6-(dimethyl-amino)pyridin-3-yl)-7-((1R,3R,5R)-3-(((3-fluoro-4-methoxy-pyridin-2-yl)oxy)methyl)-2-azabicyclo [3.1.0]hexan-2-yl)-4-oxo-1,4-dihydro-quinoline-3-carboxylic acid], the half-inhibitory concentration (IC50) was at most 1000 nM.

`COc1ccnc(OC[C@H]2C[C@H]3C[C@H]3N2c2cc3c(cc2F)c(=O)c(C(=O)O)cn3-c2ccc(N(C)C)nc2)c1F` [Compound 197, 1-(6-(dimethyl-amino)pyridin-3-yl)-6-fluoro-7-((1R,3R,5R)-3-(((3-fluoro-4-methoxy-pyridin-2-yl)oxy)methyl)-2-azabicyclo [3.1.0]hexan-2-yl)-4-oxo-1,4-dihydro-quinoline-3-carboxylic acid]: the IC50 was at most 1000 nM.

As for `COc1ccc(Cl)c(OC[C@H]2C[C@H]3C[C@H]3N2c2cc3c(cc2Cl)c(=O)c(C(=O)O)cn3-c2ccnc(N)c2)n1` [Compound 198, 1-(2-aminopyridin-4-yl)-6-chloro-7-((1R,3R,5R)-3-(((3-chloro-6-methoxy-pyridin-2-yl)oxy)methyl)-2-azabicyclo [3.1.0]hexan-2-yl)-4-oxo-1,4-dihydro-quinoline-3-carboxylic acid], the IC50 is at most 1000 nM.

The term IC50 denotes the point on the concentration scale where inhibition reaches its midpoint.
